KD data for nine compounds are collected here from paper PMC6284575 (2018).

For assay [1], the system named is Tte class-I preQ1 riboswitch aptamer, U22Ap variant (RNA, riboswitch, 2-aminopurine at 22 (replacing U22)) CUGGGUCGCAGUAACCCCAGUUAACAAAACAAG
The assay can be described thus: 2-aminopurine fluorescence titration. The settings on record: 100 mM KCl, 2 mM MgCl2; 50 mM MOPS, pH 7.5, 293 K; 0.5 µM RNA; apparent.

Assay [2] has as its system Spn class-II preQ1 riboswitch aptamer, A11Ap variant (RNA, riboswitch, 2-aminopurine at 11 (replacing A11)) CUUGGUGCUUAGCUUCUUUCACCAAGCAUAUUACACGCGGAUAACCGCCAAAGGA
The assay can be described thus: 2-aminopurine fluorescence titration. The settings on record: 100 mM KCl, 2 mM MgCl2; 50 mM MOPS, pH 7.5, 293 K; 0.5 µM RNA; apparent.

As for `COCCOCCOCCNCc1c[nH]c2nc(N)[nH]c(=O)c12`, the KD in assay [1] is 922 nM; in assay [2], 4580 nM.

On to `NCCCCNCc1c[nH]c2nc(N)[nH]c(=O)c12`, for which the KD came to 41 nM in assay [1] and 148 nM in assay [2].

For `NCCCNCc1c[nH]c2nc(N)[nH]c(=O)c12`, the KD in assay [1] came out at 32 nM; in assay [2], 97 nM.

On to `NCCCc1c[nH]c2nc(N)[nH]c(=O)c12`, for which the values for the KD in assay [1] and in assay [2] were 71 nM and 2830 nM, respectively.

Consider `NCc1c[nH]c2nc(N)[nH]c(=O)c12`, for which the KD in assay [1] is 51 nM; in assay [2] it was 430 nM.

For `Nc1nc2[nH]cc(CNCCCCCNCc3c[nH]c4nc(N)[nH]c(=O)c34)c2c(=O)[nH]1`, the KD came out at 590 nM in assay [1] and 1030 nM in assay [2].

As for `[N-]=[N+]=NCCCCNCc1c[nH]c2nc(N)[nH]c(=O)c12`, the figures for the KD in assay [1] and in assay [2] were 88 nM and 432 nM, respectively.

In the case of `[N-]=[N+]=NCCCNCc1c[nH]c2nc(N)[nH]c(=O)c12`, the KD in assay [1] stood at 30 nM; in assay [2] it was 254 nM.

On to `[N-]=[N+]=NCCOCCNCc1c[nH]c2nc(N)[nH]c(=O)c12`, for which the KD in assay [1] came out at 167 nM; in assay [2] it was 203 nM.
